Patent US7199151B2 (priority 1996, dated 2007)

Legend:
Format in all cases: cell-based
CNSSF 268 = test: cells; conditions: concentration at which PG is +50, 48 hours exposure, SRB
Method: (§1) Conjugates 1 and 2 were sent to the United States National Cancer Institute (NCI) for screening in the NCI's anticancer screening program. The conjugates were provided in ethanol (approximately 40 mg analog/2 ml ethanol). […] Instructions were provided to store at 4° C. and to open the vials only when ready for immediate experimental use. Instructions also were provided to use the ethanol solutions containing the conjugates directly or to dissolve the analogs further in DMSO (dimethylsulfoxide) at appropriate concentrations, with vortexing if necessary for adequate dispersal.
(§2) The activities of conjugates 1 and 2 were tested against 57 cancer cell lines. […] To understand the data, reference is made to the guides provided by the NCI, excerpted as follows:
(§3) The Calculated Measurement of Effect: Percentage Growth (PG)
(§4) The measured effect of the compound on a cell line is currently calculated according to one or the other of the following two expressions: If (Mean ODtest−Mean ODtzero)≧0, then PG=100×(Mean ODtest−Mean ODtzero)/(Mean ODctrl−Mean Odtzero) If (Mean ODtest−Mean ODtzero)<0, then PG=100×(Mean ODtest−Mean Odtzero)/Mean Odtzero Where: • Mean ODtzero=The average of optical density measurements of SRB-derived color just before exposure of cells to the test compound. • Mean ODtest=The average of optical density measurements of SRB-derived color after 48 hours exposure of cells to the test compound. • Mean ODctrl=The average of optical density measurements of SRB-derived color after 48 hours with no exposure of cells to the test compound. • Experimental data was collected against each cell line . . . Each concentration is expressed as the log10 (molar or μg/ml) . . . The response parameters GI50, TGI, and LC50 are interpolated values representing the concentrations at which the PG is +50, 0, and −50, respectively. Sometimes these response parameters cannot be obtained by interpolation. If, for instance, all of the PGs in a given row exceed +50, then none of the three parameters can be obtained by interpolation. […]

CNS SF-539 = test: cells; conditions: 48 hours exposure, SRB
Method: as §1, §2, §3, §4

CNSU251 = system: CNSU251
Method: as §1, §2, §3
(§5) The measured effect of the compound on a cell line is currently calculated according to one or the other of the following two expressions: If (Mean ODtest−Mean ODtzero)≧0, then PG=100×(Mean ODtest−Mean ODtzero)/(Mean ODctrl−Mean Odtzero) If (Mean ODtest−Mean ODtzero)<0, then PG=100×(Mean ODtest−Mean Odtzero)/Mean Odtzero Where: • Mean ODtzero=The average of optical density measurements of SRB-derived color just before exposure of cells to the test compound. • Mean ODtest=The average of optical density measurements of SRB-derived color after 48 hours exposure of cells to the test compound. • Mean ODctrl=The average of optical density measurements of SRB-derived color after 48 hours with no exposure of cells to the test compound. • Experimental data was collected against each cell line . . . Each concentration is expressed as the log10 (molar or μg/ml) . . . The response parameters GI50, TGI, and LC50 are interpolated values representing the concentrations at which the PG is +50, 0, and −50, respectively. Sometimes these response parameters cannot be obtained by interpolation. If, for instance, all of the PGs in a given row exceed +50, then none of the three parameters can be obtained by interpolation. In such a case, the value given for each response parameter is the highest concentration tested . . . This practice is extended similarly to the other possible situations where a response parameter cannot be obtained by interpolation.
(§6) Dose-Response Curves: • The dose-response curve page of the data package is created by plotting the PGs against the log10 of the corresponding concentration for every cell line. The cell line curves are grouped by subpanel. Horizontal lines are provided at the PG values of +50, 0, and −50. The concentrations corresponding to points where the curves cross these lines are the GI50, TGI and LC50, respectively.

[1] = system: leukemia cancer cell lines; conditions: six leukemia lines for the conjugates, four for Taxol; FIGS. 1, 10 and 19
Method: as §1, §2, §3, §5, §6

[2] = system: MDA-N and MDA-MB-435 breast cancer cell lines; conditions: at all concentrations tested
Method: as §1, §2, §3, §5, §6

57 cancer cell lines = conditions: average over all cell lines; −10 used where Taxol was active at −10.0 (27 instances)
Method: as §1, §2, §3, §5, §6

[3] = system: non-small cell lung cancer lines H522 and H460
Method: as §1, §2, §3, §5, §6

- average GI50 across all cell lines tested (57 cancer cell lines): −9.19 log10 (molar or μg/ml)
SMILES: CC(=O)O[C@H]1C(=O)[C@@]2(C)[C@H]([C@H](OC(=O)c3ccccc3)[C@]3(O)C[C@H](OC(=O)[C@H](O)[C@@H](NC(=O)c4ccccc4)c4ccccc4)C(C)=C1C3(C)C)[C@]1(OC(C)=O)CO[C@@H]1C[C@@H]2O [Taxol, paclitaxel]
- GI50 (CNSSF 268): < 0.1 nM
- GI50 (CNS SF-539; CNSSF-539, concentration at which PG is +50, CNS SF 539): 30.2 nM
- TGI (CNS SF-539; concentration at which PG is 0, CNS SF-539): −6.95 log10 (molar or μg/ml)
- effectiveness at TGI against CNSU251 relative to other CNS cell lines (CNSU251): least effective
- effectiveness against leukemia cancer cell lines [1]: somewhat effective
- relative activity toward MDA-N versus MDA-MB-435 [2]: equivalent in activity
- difference in effectiveness at TGI, H522 versus H460 [3]: about 3 logs
- relative effectiveness at TGI, H522 versus H460 [3]: more effective against non-small cell lung cancer line H522 than against H460
